Converted amounts (≈) assume the structure as drawn.

Our source for the MIC and Phenotype values is patent US7510836B2, “Alpha arteether resistance domain” (priority 2003, dated 2009).

One assay concerns E. coli CA8000. Put plainly: Minimum inhibitory concentration (cross resistance). It counts as cell-based. The settings on record: Escherichia coli; strain CA8000. The source says: (§1) The minimum inhibitory concentrations (MIC) of the quinolone and fluoroquinolone antibiotics were quantified for different strains and compared among each other. The differential response indicate the measure of resistance and sensitivity. Higher MIC indicate more resistance.

A further assay concerns E. coli DH5a. Described as above. It counts as cell-based. The settings on record: Escherichia coli; strain DH5a.
Text: as §1

For the next assay, the system named is E. coli ET8000. The description is as above. It counts as cell-based. The settings on record: Escherichia coli; strain ET8000.
Text: as §1

The subject of another assay is E. coli NK5819. The assay is described as above. The settings on record: Escherichia coli; strain NK5819. Type of assay: cell-based.
Text: as §1

The test system of the next assay is E. coli mutant CA80010. The description is as above. Type of assay: cell-based. The settings on record: Escherichia coli, read-out: minimum inhibitory concentration (MIC).
Text: (§2) In order to develop an arteether resistant mutants from an arteether sensitive strains a reverse strategy was applied. Quinoline/fluoroquinolone (Q/FQs) resistant strains were developed spontaneously i.e. screening overnight log phase culture of the Quinolone/fluoroquinolone sensitive i.e. arteether resistant strain (E coli CA 8000) on the poison agar plate of the Q/FQs. The Q/FQ resistant mutants which appeared on the poison agar plates were first purified through single colony purification and then checked for their arteether sensitivity. These arteether sensitive mutants on the contrary when checked for their Q/Fqs resistance they show different level of Q/FQs resistance.
as §1

For another assay, the system named is E. coli mutant CA80012. The assay is described as above. It counts as cell-based. The settings on record: Escherichia coli, read-out: minimum inhibitory concentration (MIC).
Text: as §2, §1

For the next assay, the system named is E. coli mutant CA8001. Described as above. Type of assay: cell-based. The settings on record: Escherichia coli; strain CA8001.
Text: as §2, §1

In the next assay the test system is E. coli mutant CA8002. The assay is described as above. The settings on record: Escherichia coli; strain CA8002. Type of assay: cell-based.
Text: as §2, §1

A further assay concerns E. coli mutant CA8003. The description is as above. Type of assay: cell-based. The following applies: Escherichia coli; strain CA8003.
Text: as §2, §1

A further assay deals with E. coli mutant CA8005. The description is as above. Type of assay: cell-based. The following applies: Escherichia coli; strain CA8005.
Text: as §2, §1

The subject of a further assay is E. coli mutant CA8006. The assay is described as above. It counts as cell-based. The following applies: Escherichia coli; strain CA8006.
Text: as §2, §1

A further assay concerns E. coli mutant CA8007. The assay is described as above. Type of assay: cell-based. The following applies: Escherichia coli; strain CA8007.
Text: as §2, §1

A further assay relates to E. coli mutant CA8009. The description is as above. The following applies: Escherichia coli; strain CA8009. Type of assay: cell-based.
Text: as §2, §1

The next assay concerns E. coli CA8012. Put plainly: Phenotype of strain (resistance or sensitivity). Type of assay: cell-based, Escherichia coli. Also noted: key: R: resistance; S: sensitivity. The settings on record: gyrA GGT-GAT(242), Gly-Asp 81.
Text: as §2
(§3) The strains of E coli of the investigation, their phenotypes in terms of a-arteether (resistance or sensitivity, superscript R or S) or antibiotic resistance or sensitivity, change in nucleotide position of the gyrase A gene leading to the phenotype, corresponding amino acid change in the protein and the position of amino acid change are being described. Always the phenotype a-arteether resistance is accompanied with quinolone or fluoroquinolone sensitivity and vice versa.

Assay [1] deals with E. coli mutant strain Rev 4. Put plainly: Phenotype of revertant (resistance or sensitivity). It counts as cell-based, Escherichia coli. Also noted: key: R: resistance; S: sensitivity. The settings on record: gyrA GAT-GGT(242), Asp-Gly 81.
Text: as §3
(§4) The commercially available strain E. coli DH5[…] (Stratagene, USA) is sensitive to […]-arteether but resistant to quinolone/fluoroquinolone due to a mutation at 87th aminoacid position of the gyr A protein (Aspartic acid of wild type is changed to Aspargine) with corresponding change in the codon GAC to AAC. This strain was used to screen […]-arteether resistant mutations. The observation was startling as the […]-arteether resistant mutants are the exact reversion at the 87th position of the aminoacid of gyrase A subunit i.e. Aspargine changed to aspartic acid, with corresponding change in the codon AAC to GAC.

For assay [2], the system named is E. coli mutant strain Rev 5. Nature of the assay: Phenotype of revertant (resistance or sensitivity). The following applies: gyrA GAT-GGT(242), Asp-Gly 81. It counts as cell-based, Escherichia coli. Set-up: key: R: resistance; S: sensitivity.
Text: as §3, §4

Assay [3] has as its system E. coli mutant strain Rev 6. Put plainly: Phenotype of revertant (resistance or sensitivity). It counts as cell-based, Escherichia coli. Also noted: key: R: resistance; S: sensitivity. The settings on record: gyrA GAT-GGT(242), Asp-Gly 81.
Text: as §3, §4

Assay [4] relates to E. coli mutant strain Rev. 1. Put plainly: Phenotype of revertant (resistance or sensitivity). It counts as cell-based, Escherichia coli. Set-up: key: R: resistance; S: sensitivity. The following applies: gyrA GAT-GGT(242), Asp-Gly 81.
Text: as §3, §4

In assay [5] the test system is E. coli mutant strain Rev. 2. Put plainly: Phenotype of revertant (resistance or sensitivity). It counts as cell-based, Escherichia coli. Also noted: key: R: resistance; S: sensitivity. The following applies: gyrA GAT-GGT(242), Asp-Gly 81.
Text: as §3, §4

In assay [6] the test system is E. coli mutant strain Rev. 3. Put plainly: Phenotype of revertant (resistance or sensitivity). It counts as cell-based, Escherichia coli. Also noted: key: R: resistance; S: sensitivity. The following applies: gyrA GAT-GGT(242), Asp-Gly 81.
Text: as §3, §4

Take `O=C(O)c1cn(C2CC2)c2cc(N3CCNCC3)c(F)cc2c1=O` [Ciprofloxacin]: the MIC was < 0.05 µg/mL against E. coli CA8000; 0.1 µg/mL (≈ 0.302 µM) in the assay with E. coli DH5a; 0.5 µg/mL (≈ 1.51 µM) in the assay on E. coli ET8000; < 0.1 µg/mL with E. coli NK5819; 0.1 µg/mL (≈ 0.302 µM) with E. coli mutant CA80010; 0.1 µg/mL (≈ 0.302 µM) in the assay on E. coli mutant CA80012. For the same compound, the MIC against E. coli mutant CA8001 is < 0.1 µg/mL; with E. coli mutant CA8002, < 0.1 µg/mL; with E. coli mutant CA8003, < 0.1 µg/mL; against E. coli mutant CA8005 it was 0.1 µg/mL (≈ 0.302 µM); with E. coli mutant CA8006, 0.1 µg/mL (≈ 0.302 µM); against E. coli mutant CA8007, 0.1 µg/mL (≈ 0.302 µM). In the assay on E. coli mutant CA8009, this compound came in with an MIC of 0.1 µg/mL (≈ 0.302 µM).

For the compound `CCn1cc(C(=O)O)c(=O)c2cc(F)c(N3CCNC(C)C3)c(F)c21` (stereo not shown) [Lomefloxacin], the MIC was < 0.05 µg/mL against E. coli CA8000; 0.5 µg/mL (≈ 1.42 µM) in the assay on E. coli DH5a; > 2 µg/mL in the assay on E. coli ET8000; < 0.5 µg/mL in the assay with E. coli NK5819; 1.5 µg/mL (≈ 4.27 µM) with E. coli mutant CA80010; 1.5 µg/mL (≈ 4.27 µM) in the assay with E. coli mutant CA80012. Further, the MIC with E. coli mutant CA8001 is 1.5 µg/mL (≈ 4.27 µM); with E. coli mutant CA8002 it was 1.5 µg/mL (≈ 4.27 µM); in the assay on E. coli mutant CA8003, 2.5 µg/mL (≈ 7.12 µM); in the assay with E. coli mutant CA8005 it was 0.5 µg/mL (≈ 1.42 µM); with E. coli mutant CA8006, 1.5 µg/mL (≈ 4.27 µM); in the assay with E. coli mutant CA8007, 1.5 µg/mL (≈ 4.27 µM). The MIC in the assay with E. coli mutant CA8009 is 1.5 µg/mL (≈ 4.27 µM). For the same compound, the Phenotype result in the assay with E. coli CA8012 is reported as “R”; in assay [1], “S”; in [2] it was “S”; in [3], “S”; in assay [4], “S”; in assay [5] it was “S”. The Phenotype result in [6] is “S”.

Take `C[C@@H]1CN(c2c(F)c(N)c3c(=O)c(C(=O)O)cn(C4CC4)c3c2F)C[C@H](C)N1` [Sparfloxacin]: the MIC is < 0.05 µg/mL against E. coli CA8000; 10 µg/mL (≈ 25.5 µM) in the assay on E. coli DH5a; 20 µg/mL (≈ 51 µM) in the assay with E. coli ET8000; 10 µg/mL (≈ 25.5 µM) in the assay with E. coli NK5819; 40 µg/mL (≈ 102 µM) in the assay with E. coli mutant CA80010; 40 µg/mL (≈ 102 µM) in the assay with E. coli mutant CA80012. Further, the MIC in the assay on E. coli mutant CA8001 turned out to be 20 µg/mL (≈ 51 µM); in the assay with E. coli mutant CA8002, 20 µg/mL (≈ 51 µM); against E. coli mutant CA8003 it was 20 µg/mL (≈ 51 µM); against E. coli mutant CA8005, 20 µg/mL (≈ 51 µM); in the assay on E. coli mutant CA8006 it was 40 µg/mL (≈ 102 µM); against E. coli mutant CA8007, 20 µg/mL (≈ 51 µM). Further, the MIC against E. coli mutant CA8009 amounted to 40 µg/mL (≈ 102 µM).
